Several values for one entry are separate records, joined by “and”; a condition that tells them apart may be missing. Equal entries are not always repeated.
System: CEM cells
Assay: Non-targeted LC-MS metabolite profiling: percent [13C6]glucose labeling and relative metabolite levels
Format: cell-based, human
Conditions: CEM cells, 12 h following release from G1 arrest, replicates #1-#6
From the text: To further investigate the functions of dCK and ATR at the G1/S transition in CEM cells, a non-targeted liquid chromatography mass spectrometry (LC-MS) assay was used to determine the utilization of labeled [^13C6]glucose and [^13C9,^15N3]deoxycytidine, the main substrates for de novo and salvage nucleotide biosynthesis, respectively. Of the 166 metabolites identified in CEM cells treated with VE-822 and/or dCKi, 105 metabolites found in all four treatment groups contained glucose-derived ^13C atoms. […] These metabolites included intermediates such as rUTP, rCTP and rCDP in the de novo dCTP biosynthesis (Fig. 1d). […] However, several deoxyribonucleotides, including dCTP, were below the limit of detection of the non-targeted LC-MS approach, raising the concern that the sensitivity of this assay is not sufficient to measure the contribution of the salvage pathway or the ratio of de novo and salvage biosynthesis to these pools. To address this problem, a newly developed targeted MS assay was developed (Fig. 1e and Supplementary Fig. 3). In this assay, samples containing either extracted dNTPs or hydrolyzed DNA from labeled cells are separated by LC for detection by a triple quadrupole mass spectrometer using multiple reaction monitoring (LC-MS/MS-MRM). The first (Q1) and third (Q3) quadrupoles function as mass filters, while the second (Q2) quadrupole serves as a collision chamber (Fig. 1e). For instance, to profile the biosynthetic composition of deoxycytidine (dC) derived from hydrolyzed DNA or dCTP, an intact, protonated dC ion is selected in Q1, followed by fragmentation of the glycosidic bond, which releases protonated cytosine in Q2, that is filtered in Q3 and detected to generate an ion chromatogram. The peak areas for the ion chromatograms of salvage [^13C9,^15N3]dC (red trace), de novo [^13C5]dC (black trace, from [^13C6]glucose) and unlabeled dC (gray trace) (Fig. 1e) are used to determine the relative contributions of the de novo and salvage routes both to dCTP pools and to DNA-incorporated dCTP.
Cells were transferred into RPMI-1640 without glucose and supplemented with 10% dialyzed FBS (Gibco) containing the following labeled substrates: precursors for de novo [U-^13C6]glucose (Sigma-Aldrich, 389374) at 11 mM; precursors for purine salvage [U-^13C10,^15N5]dA (Cambridge Isotopes, CIL 3896), [^15N5]dA (Cambridge Isotopes, NLM-3895) and [^15N5]dG (Cambridge Isotopes, NLM-3899) at 5 µM or as indicated; and precursors for pyrimidine salvage: [U-^13C9,^15N3]dC (Silantes, 124603602) and [U-^13C10,^15N2]dT (Cambridge Isotopes, CNLM-3902) at 5 µM and [^15N2]orotate (Cambridge Isotopes, NLM-1048) at indicated concentrations. The cells were incubated for 12 h or as indicated before sample collection and processing. […]
Non-targeted LC-MS metabolic assays. 1 x 10^6 cells were washed with ice-cold 150 mM ammonium acetate twice before adding 1 mL of ice-cold 80% methanol with 10 nM norvaline as an internal standard. After vigorous vortexing, samples were centrifuged at maximum speed, the aqueous layer was transferred to a glass vial and the metabolites were dried under vacuum. Metabolites were resuspended in 50 μL 70% acetonitrile (ACN) and 5 μL of this solution used for the mass spectrometer-based analysis. The analysis was performed on a Q Exactive (Thermo Scientific) in polarity-switching mode with positive voltage 4.0 kV and negative voltage 4.0 kV. The mass spectrometer was coupled to an UltiMate 3000RSLC (Thermo Scientific) UHPLC system. Mobile phase A was 5 mM ammonium acetate (NH4AcO), pH 9.9, B was acetonitrile and the separation achieved on a Luna […] NH2 100 A column (150 × 2.0 mm, Phenomenex). The flow was 200 μL/min, and the gradient ran from 15% A to 95% A in 18 min, followed by an isocratic step for 9 min and re-equilibration for 7 min. Metabolites were detected and quantified as area under the curve based on retention time and accurate mass (≤ 3 p.p.m.) using the TraceFinder 3.1 (Thermo Scientific). Relative amounts of […]

[1] = metabolite CDP (KEGG C00112), listed as D
[2] = metabolite CDP-EtA (KEGG C00570), listed as D
[3] = metabolite CMP (KEGG C00055), listed as D
[4] = metabolite CTP (KEGG C00063), listed as D
[5] = metabolite Choline (KEGG C00114), listed as D
[6] = metabolite Cinnamic acid (KEGG C00423), listed as D
[7] = metabolite Cit (KEGG C00158), listed as D
[8] = metabolite Creatine (KEGG C00300), listed as D
[9] = metabolite Creatinine (KEGG C00791), listed as D
[10] = metabolite Cytosine (KEGG C00380), listed as D
[11] = metabolite DMG (KEGG C01026), listed as D
[12] = metabolite Dihydroorotate (KEGG C00337), listed as D
[13] = metabolite F16BP (KEGG C00354), listed as D
[14] = metabolite Folate (KEGG C00504), listed as D
[15] = metabolite Fru (KEGG C00095), listed as D
[16] = metabolite Fum (KEGG C00122), listed as D
[17] = metabolite G (KEGG C00387), listed as D
[18] = metabolite dG (KEGG C00330), listed as D

Structure (SMILES): COc1ccc(-c2nc([C@@H](C)Sc3nc(N)cc(N)n3)c(C)s2)cc1OCCNS(C)(=O)=O [dCKi]
- Glucose labeling of CDP [1]: 77.96% and 72.97% and 80.28% and 0.44% and 79.17% and 76.50%
- Relative level of CDP [1]: 0.5 and 1.3 and 2.1 and 0.0678 and 0.334 and 0.7
- Glucose labeling of CDP-EtA [2]: 70.01% and 72.58% and 83.31% and 72.60% and 75.82% and 67.23%
- Relative level of CDP-EtA [2]: 0.9 (4×) and 1.4 and 1.0
- Glucose labeling of CMP [3]: 71.05% and 65.79% and 64.24% and 62.92% and 70.94% and 75.98%
- Relative level of CMP [3]: 1.0 and 0.663 and 1.8 and 0.2 and 0.366 and 0.8
- Glucose labeling of CTP [4]: 81.19% and 79.64% and 75.43% and 84.05% and 71.54% and 81.90%
- Relative level of CTP [4]: 0.345 and 0.9 and 1.2 and 0.0446 and 0.234 and 0.445
- Glucose labeling of Choline [5]: 0.00256% and 0.00252% and 0.00247% (2×) and 0.00241% and 0.00245%
- Relative level of Choline [5]: 1.1 and 1.3 (2×) and 0.842 and 0.8 (2×)
- Glucose labeling of Cinnamic acid [6]: 0.00% (5×) and 1.11e-14%
- Relative level of Cinnamic acid [6]: 1.2 and 1.3 and 1.6 and 0.8 (2×) and 0.7
- Glucose labeling of Cit [7]: 50.63% and 52.82% and 53.30% and 41.63% and 44.16% and 45.64%
- Relative level of Cit [7]: 0.8 and 1.3 and 1.4 and 0.367 and 0.6 and 0.7
- Glucose labeling of Citraconic acid (metabolite Citraconic acid (KEGG C02226)): 0.00%
- Relative level of Citraconic acid (metabolite Citraconic acid (KEGG C02226), listed as D): 1.1 and 1.0 (2×) and 1.3 and 0.645 and 0.9
- Glucose labeling of Citrulline (metabolite Citrulline (KEGG C00327)): 0.18%
- Relative level of Citrulline (metabolite Citrulline (KEGG C00327), listed as D): 2.2 and 0.259 and 0.529 and 0.8 and 0.4 and 0.527
- Glucose labeling of Creatine [8]: 0.000817% and 0.00101% and 2.36e-6% and 0.000311% and 0.000285% and 0.000183%
- Relative level of Creatine [8]: 1.0 (4×) and 1.1 (2×)
- Glucose labeling of Creatinine [9]: 0.000768% and 0.000756% and 0.000758% and 0.000811% and 0.00078% and 0.000884%
- Relative level of Creatinine [9]: 1.2 and 0.952 and 1.0 (2×) and 0.8 and 0.9
- Glucose labeling of Cystathionine (metabolite Cystathionine (KEGG C02291)): 0.26%
- Relative level of Cystathionine (metabolite Cystathionine (KEGG C02291), listed as D): 1.9 (2×) and 1.8 and 0.9 and 0.634 and 0.644
- Glucose labeling of Cytosine [10]: 0.000526% and 0.000773% and 0.000656% and 0.000291% and 0.000873% and 0.0323%
- Relative level of Cytosine [10]: 1.6 and 0.8 and 1.1 (2×) and 1.4 and 2.5
- Glucose labeling of DHAP (metabolite DHAP (KEGG C00111)): 100.00%
- Relative level of DHAP (metabolite DHAP (KEGG C00111)): 0.162
- Glucose labeling of DMG [11]: 0.05% and 0.06% and 0.000349% and 0.02% and 0.0219% and 0.03%
- Relative level of DMG [11]: 1.0 (2×) and 1.3 (2×) and 1.4 and 1.1
- Glucose labeling of Dihydroorotate [12]: 2.31% and 4.79% and 3.17% and 1.21% and 1.28% and 0.88%
- Relative level of Dihydroorotate [12]: 1.8 and 2.4 and 1.6 and 0.556 and 0.665 and 0.641
- Glucose labeling of F16BP [13]: 45.03% and 62.70% and 85.32% and 37.47% and 50.53% and 49.36%
- Relative level of F16BP [13]: 0.184 and 0.186 and 0.7 and 0.137 and 0.132 and 0.115
- Glucose labeling of Folate [14]: 100.00% and 0.00% (4×) and 1.11e-14%
- Relative level of Folate [14]: 1.8 and 6.1 and 0.8 and 0.376 and 0.9
- Glucose labeling of Fru [15]: 17.52% and 38.15% and 34.20% and 21.41% and 18.03% and 26.54%
- Relative level of Fru [15]: 1.5 and 0.6 and 0.8 and 1.0 and 1.4 and 0.9
- Glucose labeling of Fum [16]: 15.19% and 16.91% and 18.53% and 8.92% and 13.71% and 14.45%
- Relative level of Fum [16]: 0.9 and 1.0 and 1.4 and 0.443 and 0.654 and 0.7
- Glucose labeling of G [17]: 100.00% (3×) and 0.55% (3×)
- Relative level of G [17]: 1.4 and 0.8 and 0.9
- Glucose labeling of dATP (metabolite dATP (KEGG C00131)): 100.00%
- Relative level of dATP (metabolite dATP (KEGG C00131), listed as D): 0.743 and 1.0
- Glucose labeling of dCTP (metabolite dCTP (KEGG C00458)): 100.00%
- Relative level of dCTP (metabolite dCTP (KEGG C00458), listed as D): 1.0 and 0.8 and 1.2
- Glucose labeling of dG [18]: 0.40% and 0.52% and 0.55% and 0.48% and 0.47% and 0.42%
- Relative level of dG [18]: 1.5 and 0.9 (2×) and 1.1 and 0.8 (2×)
- Glucose labeling of dGDP (metabolite dGDP (KEGG C00361)): 100.00%
- Relative level of dGDP (metabolite dGDP (KEGG C00361)): 0.0
- Glucose labeling of dTMP (metabolite dTMP (KEGG C00364)): 100.00%
- Relative level of dTMP (metabolite dTMP (KEGG C00364), listed as D): 1.6 (2×) and 1.0 and 2.4
- Glucose labeling of dTTP (metabolite dTTP (KEGG C00459)): 100.00%
- Relative level of dTTP (metabolite dTTP (KEGG C00459), listed as D): 1.6 and 3.4 and 1.3
- Glucose labeling, Lys: 0.00%
- Glucose labeling, NAD+: 0.00%
- Glucose labeling, Nicotinamide: 0.00%
- Glucose labeling, P-Creatine: 0.0737%
- Glucose labeling, P-EtA: 0.0123%
- Glucose labeling, PEP: 100.00%
- Glucose labeling, Phe: 0.00%
- Glucose labeling, Pipecolate: 0.00%
- Glucose labeling, Pyr: 100.00%
- Glucose labeling, Thr (C00188): 0.00%
- Glucose labeling, Trigonelline (C01004): 0.00%
